Columns and labels:
[1] = Model of passage through the intestinal barrier constituted of Caco-2 cells; type: in vitro ADME; details: human, concentration=20 μM, apical pH=6.5 and basal pH=7.4, read-out: Ptot, coefficient of apparent permeability for the monolayer of intestinal epithelial cells plus filter
Source text: The compounds according to the invention were investigated on a model of passage through the intestinal barrier constituted of Caco-2 cells. (M. C. Grès, Pharm. Res., 1998, 15(5), 726-733). This model makes it possible to define the coefficient Ptot of apparent permeability of the product for the monolayer of intestinal epithelial cells plus filter. As examples, compounds No. 60 (ex. 5) and No. 90 (ex. 7) have, in this model, a Ptot of 111.97 and 64.5 respectively (10^−7 cm·s^−1; concentration=20 μM; apical pH=6.5 and basal pH=7.4). These values are predictive of total absorption in humans, after administration by the oral route.

Question: For `CC(C)(C)C(=O)NCc1cc(-c2ccc(Cl)c(Cl)c2)n(Cc2ccc(Cl)c(Cl)c2)n1` [Compound 60, N-((1-(3,4-Dichlorobenzyl)-5-(3,4-dichlorophenyl)-1H-pyrazol-3-yl)methyl)-2,2-dimethylpropanamide], which Papp at 20 μM [1] is on record?
Answer: Its Papp at 20 μM is 11.2 ×10⁻⁶ cm/s.

Question: With `CC(C)(C)S(=O)(=O)NCc1cc(-c2ccc(Cl)c(Cl)c2)n(Cc2ccc(Cl)c(Cl)c2)n1` [Compound 90, N-((1-(3,4-Dichlorobenzyl)-5-(3,4-dichlorophenyl)-1H-pyrazol-3-yl)methyl)-2-methylpropane-2-sulfonamide] as the compound, how does the Papp at 20 μM [1] read?
Answer: Its Papp at 20 μM is 6.45 ×10⁻⁶ cm/s.

Question: What about the melting point of the same compound?
Answer: Its melting point is 127 °C.

Question: Which melting point does the source give for `Cc1ccc(Cn2nc(CNC(=O)NC(C)(C)C)cc2-c2ccc(Cl)c(Cl)c2)cc1Cl` [Compound 81, N-(tert-Butyl)-N′-((1-(3-chloro-4-methylbenzyl)-5-(3,4-dichlorophenyl)-1H-pyrazol-3-yl)methyl)urea] here?
Answer: The melting point was 181 °C.

Source: US20100144818A1, “1-BENZYLPYRAZOLE DERIVATIVES, PREPARATION THEREOF AND THERAPEUTIC USE THEREOF” (SANOFI-AVENTIS, priority 2007, published 2010)
